pEC50: −log10 of the molar value.
Experiments:
[1] = test system: human whole blood eosinophil; test: Human whole blood eosinophil actin-polymerization response; type: cell-based; conditions: read-out: Actin-polymer EC50
Description: Yet another secondary screening assay is an actin polymerization assay. Another biological effect of the interaction of PGD2 with CRTH2 is actin polymerization. Thus, an actin polymerization assay may be used as a secondary screen to characterize the activity of a compound isolated in the primary screening assays of the invention. In one embodiment, actin polymerization may be assayed using an actin-specific fluorescent label, nitrobenzoxadiazole (NBD)-phallacidin, which binds polymerized actin fiber. In a specific embodiment, the assay may be performed as follows: cell preparations are resuspended at 5-10×10^6 cells/ml in RPMI 1640 plus 10 mM HEPES, 100/10 Pen/Strep, and 0.5% FCS. The cell suspension is aliquoted (100 μL per well) into a 96-well U-bottom polypropylene microtiter plate. 50 ul of the appropriate stimulus (PGD2 or test compound, or both PGD2 and test compound) is added using an 8-channel pipette followed exactly 25 seconds later by 50 ul of a stopping solution which contains lysophosphotidylcholine (0.5 mg/ml), Hank's balanced salt solution (100 ul 10×), 16% formaldehyde (800 ul), and 6.6 uM NBD-phallacidin in MEOH (100 ul). The plate is allowed to sit at room temperature for 15 minutes. The plate is then centrifuged at 1000 rpm for 5 minutes, the supernatants flicked off and the cell pellets resuspended in 250 ul PBS plus 2%FCS and 0.2% sodium azide. Each sample is then read on a FACS Caliber instrument. Cells are gated using the forward scatter/side scatter data in the lymphocyte area. Responses are measured by the change in median FL-1 fluorescence between vehicle treated cells and stimulus treated cells. Test compounds can be assayed in the presence and absence of PGD2, and compared to a sample containing PGD2 alone. A compound that reduces PGD2-induced actin polymerization of CRTH2 cells is identified as a candidated CRTH2 antagonist.

guinea pig eyes = conditions: topical, cited from earlier work; for microvascular leakage followed by conjunctival inflammation: 6-hour post challenge
[2] = test system: isolated human eosinophils; test: Reactive oxygen species (ROS) release in isolated human eosinophils; type: cell-based
Experimental: Another secondary assay is the reactive oxygen species release assay. One measure of PGD2-induced activation of CRTH2 cells, such as eosinophils, is the intracellular release of reactive oxygen species. This can be tested in a reactive oxygen species release assay, or ROS, using lucigenin-dependent chemiluminescence to measure reactive oxygen species release. In this method, freshly isolated eosinophils are prepared, by standard methods, and resuspended at concentration 2-4×10^6 cells/ml in (RPMI; 10 mM HEPES; 1× Pen/Strep; 0.5% FBS) at room temperature. Immediately prior to use, 1 ml of cell suspension is added to 9 ml of buffer, prewarmed to 37° C. for 15 minutes, and added 0.5 ml of 200 mM Lucigenin.
Test compounds (made as 10,000× DMSO stocks) are diluted in buffer with DMSO (1.5 ul of DMSO/2.5 ml Buffer) and 25 μl/well added to white 96-well culture plate and placed in a 37° C. incubator. Isolated cells (held at room temperature) are diluted with room temperature buffer to 2-4×10^6 cells/ml, and incubated in a water bath at 37° C. for 15 minutes. At 15 minutes, 0.5 ml 200 mM lucigenin (bis-N-Methylacridinium Nitrate; Sigma, St. Louis, Mo.) is added to 10 ml of the cell suspension, mixed, and 100 μl/well is added to the prewarmed microtiter plate. The plate is returned to 37° C. for 5 minutes, at which time 25 μl of stimulus is added) The plate is read in the luminometer for 8 cycles. The luminescence of test compounds can be tested in the presence of PGD2, relative to a control sample containing PGD2 alone. A compound that interferes with the ability of PGD2 to result in intracellular reactive oxygen species release in CRTH2 cells, is a candidate for a CRTH2 antagonist.

[3] = inhaled, asthmatics; cited from earlier work

O=C(O)CCCCCCC1C(=O)NC(=O)N1CCC(O)C1CCCCC1 (centres unmarked) [BW-245C]
pEC50 [1]: < 6.00 | microvascular leakage followed by conjunctival inflammation (guinea pig eyes): BW-245C-insensitive | ocular hypotension (guinea pig eyes): mimicked by BW-245C | pEC50 [2]: < 6.00

CCCCC[C@H](O)/C=C/[C@H]1C(=O)C[C@H](O)[C@@H]1C/C=C\CCCC(=O)O [PGD2, prostaglandin D2]
pEC50 [1]: 8.40 | microvascular leakage followed by conjunctival inflammation (guinea pig eyes): microvascular leakage followed by conjunctival inflammation | ocular hypotension (guinea pig eyes): elicits ocular hypotension | bronchoconstriction potency relative to PGF2α [3]: 3.5 × | bronchoconstriction potency relative to histamine [3]: 30 × | pEC50 [2]: 8.70

CCCCC[C@H](O)/C=C/[C@H]1[C@H](O)CC(=O)[C@@H]1C/C=C\CCCC(=O)O [PGE2]
pEC50 [1]: < 3.52 | pEC50 [2]: < 7.00

CCCCC[C@H](O)/C=C/[C@@H]1[C@@H](C/C=C\CCCC(=O)O)[C@@H](O)C[C@H]1O [PGF2α]
pEC50 [1]: 5.72 | pEC50 [2]: < 6.00

Source: patent US6878522B2, “Methods for the identification of compounds useful for the treatment of disease states mediated by prostaglandin D2” (priority 2000, dated 2005)
